Measured values taken from patent US20030013140A1, “Method of detecting ligand or ligand-like low-molecular weight compound” (priority 2000, published 2003).

Tests used:
Assay type in all cases: cell-based
[1] = target: T1, human IL-10 receptor (BAF/hIL-10R cell line) (Homo sapiens, UniProt Q13651); assay: Cytoproliferative activity of the human IL-10-dependent cell line BAF/hIL-10R (WST-1/1-methoxy PMS, 450 nm); settings: 2-mercaptoethanol 5×10^-5 M vs medium alone; marked differences at rhIL-10 10, 100 and 1,000 ng/mL; FIG. 6
T1 construct: expressed in transfected cells; host or cells: BAF/B03 (mouse IL-3-dependent pro-B cell line), vector pIRESpuro
T1 sequence (Q13651 22-578): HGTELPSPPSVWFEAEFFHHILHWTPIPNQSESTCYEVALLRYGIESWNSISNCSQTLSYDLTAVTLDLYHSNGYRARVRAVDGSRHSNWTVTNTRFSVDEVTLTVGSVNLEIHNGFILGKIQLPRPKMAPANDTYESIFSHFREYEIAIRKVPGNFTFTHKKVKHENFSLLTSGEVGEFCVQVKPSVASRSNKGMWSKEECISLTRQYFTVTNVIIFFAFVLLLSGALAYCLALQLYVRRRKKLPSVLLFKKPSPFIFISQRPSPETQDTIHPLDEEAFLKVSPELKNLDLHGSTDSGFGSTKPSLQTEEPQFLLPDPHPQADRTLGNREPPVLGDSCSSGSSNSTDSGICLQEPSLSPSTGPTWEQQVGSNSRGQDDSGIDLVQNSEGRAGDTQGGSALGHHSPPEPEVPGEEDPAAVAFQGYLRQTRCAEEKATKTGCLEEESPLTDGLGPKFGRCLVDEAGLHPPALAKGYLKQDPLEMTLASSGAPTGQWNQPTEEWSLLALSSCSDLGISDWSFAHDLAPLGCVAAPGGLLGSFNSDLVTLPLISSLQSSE
T1 sequence (Q61190 20-349 partner): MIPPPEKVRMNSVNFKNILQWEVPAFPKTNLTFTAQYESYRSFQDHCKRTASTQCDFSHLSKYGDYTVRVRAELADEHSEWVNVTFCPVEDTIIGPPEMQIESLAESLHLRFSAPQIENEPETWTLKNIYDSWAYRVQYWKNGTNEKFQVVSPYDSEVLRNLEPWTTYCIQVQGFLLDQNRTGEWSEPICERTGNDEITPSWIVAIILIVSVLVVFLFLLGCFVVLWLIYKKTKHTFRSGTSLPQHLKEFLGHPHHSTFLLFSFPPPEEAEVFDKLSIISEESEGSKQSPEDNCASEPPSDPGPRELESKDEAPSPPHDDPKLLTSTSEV
Protocol: Upon determining cytoproliferative activity, a cell line transfected with the human IL-10 receptor gene (BAF/hIL-10R) was recovered and, subsequent to its washing with PBS(−), was suspended in DMEM medium ((−)FCS). The cells were prepared at 5×10^4 cells/well on a 96-well plate. To the individual wells, rhIL-10 was added at 0, 0.0001, 0.001, 0.01, 0.1, 1, 10, 100 or 1,000 ng/mL, respectively, followed by incubation at 5% CO2 and 37° C. for 48 hours. Subsequent to the incubation, the WST-1/1-methoxy PMS solution (product of Dojindo Laboratories) was added (final concentration: 5 mM), and a staining reaction was then conducted in a CO2 incubator. After the reaction, measurement was conducted at a measurement wavelength of 450 nm.
(§1) With respect to the cell line (BAF/hIL-10R) obtained in Example 2 with the human IL-10 receptor gene introduced therein, effects which may be given to its screening by the existence of a reducing agent (2-mercaptoethanol) was investigated as will be described next. Firstly, two culture media were provided, one being a culture medium obtained by adding 2-mercaptoethanol at 5×10^−5 M to DMEM medium ((−)FCS) and the other consisting solely of DMEM medium ((−)FCS) without addition of the reducing agent. […]

[2] = target: T2, human G-CSF receptor (BAF/hGCSFR cell line) (Homo sapiens, UniProt Q99062); assay: Cytoproliferative activity of the human G-CSF-dependent cell line BAF/hGCSFR (WST-1/1-methoxy PMS, 450 nm)
T2 construct: expressed in transfected cells; host or cells: BAF/B03 (mouse IL-3-dependent pro-B cell line), vector pIRESpuro
T2 sequence (Q99062 25-836): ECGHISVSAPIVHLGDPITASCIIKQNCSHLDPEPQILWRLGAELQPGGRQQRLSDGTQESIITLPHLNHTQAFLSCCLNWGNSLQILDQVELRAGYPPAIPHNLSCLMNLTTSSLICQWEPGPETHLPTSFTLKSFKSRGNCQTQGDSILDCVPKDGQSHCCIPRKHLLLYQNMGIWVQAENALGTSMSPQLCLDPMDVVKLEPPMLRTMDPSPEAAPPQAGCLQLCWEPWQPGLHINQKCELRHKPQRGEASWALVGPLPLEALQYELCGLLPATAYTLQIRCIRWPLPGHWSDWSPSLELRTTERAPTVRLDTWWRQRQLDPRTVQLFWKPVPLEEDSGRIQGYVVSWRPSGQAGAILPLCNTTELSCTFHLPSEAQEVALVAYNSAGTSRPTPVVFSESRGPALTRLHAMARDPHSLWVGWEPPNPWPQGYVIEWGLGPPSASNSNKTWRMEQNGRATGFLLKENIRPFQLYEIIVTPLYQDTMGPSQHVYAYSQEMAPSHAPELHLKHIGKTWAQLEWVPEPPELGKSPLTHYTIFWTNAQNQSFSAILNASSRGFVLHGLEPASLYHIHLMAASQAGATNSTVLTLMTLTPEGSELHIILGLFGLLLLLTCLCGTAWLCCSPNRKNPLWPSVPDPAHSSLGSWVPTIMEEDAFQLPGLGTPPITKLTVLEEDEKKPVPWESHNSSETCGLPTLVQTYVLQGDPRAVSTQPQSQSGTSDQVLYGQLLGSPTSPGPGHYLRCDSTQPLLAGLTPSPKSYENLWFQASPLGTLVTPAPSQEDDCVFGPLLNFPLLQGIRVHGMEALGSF
Protocol: Upon determining cytoproliferative activity, a cell line transfected with the human G-CSF receptor gene (BAF/hGCSFR) was recovered and, subsequent to its washing with PBS(−), was suspended in DMEM medium ((−)FCS). The cells were prepared at 5×10^4 cells/well on a 96-well plate. To the individual wells, rhG-CSF was added at 0, 0.025, 0.1, 0.4, 1.6 or 6.4 ng/mL, respectively, followed by incubation at 5% CO2 and 37° C. for 48 hours. Subsequent to the incubation, a WST-1/1-methoxy PMS solution (product of Dojindo Laboratories) was added to the individual wells (final concentration: 5 mM), and a staining reaction was then conducted in a CO2 incubator. After the reaction, measurement was conducted at a measurement wavelength of 450 nm.
as §1, with “line (BAF/hGCSFR)” for “line (BAF/hIL-10R)”, “Example 1” for “Example 2”, “human G-CSF” for “human IL-10”, “without incorporation” for “without addition”, “the additives.” for “the reducing agent.”

[3] = target: T3, human EPO receptor (BAF/hEPOR cell line) (Homo sapiens, UniProt P19235); assay: Cytoproliferative activity of the human EPO-dependent cell line BAF/hEPOR (WST-1/1-methoxy PMS, 450 nm); settings: 2-mercaptoethanol 5×10^-5 M vs medium alone; FIG. 9
T3 construct: expressed in transfected cells; host or cells: BAF/B03 (mouse IL-3-dependent pro-B cell line), vector pIRESpuro; cDNA from a human erythroid leukemia cell line
T3 sequence (P19235 25-508): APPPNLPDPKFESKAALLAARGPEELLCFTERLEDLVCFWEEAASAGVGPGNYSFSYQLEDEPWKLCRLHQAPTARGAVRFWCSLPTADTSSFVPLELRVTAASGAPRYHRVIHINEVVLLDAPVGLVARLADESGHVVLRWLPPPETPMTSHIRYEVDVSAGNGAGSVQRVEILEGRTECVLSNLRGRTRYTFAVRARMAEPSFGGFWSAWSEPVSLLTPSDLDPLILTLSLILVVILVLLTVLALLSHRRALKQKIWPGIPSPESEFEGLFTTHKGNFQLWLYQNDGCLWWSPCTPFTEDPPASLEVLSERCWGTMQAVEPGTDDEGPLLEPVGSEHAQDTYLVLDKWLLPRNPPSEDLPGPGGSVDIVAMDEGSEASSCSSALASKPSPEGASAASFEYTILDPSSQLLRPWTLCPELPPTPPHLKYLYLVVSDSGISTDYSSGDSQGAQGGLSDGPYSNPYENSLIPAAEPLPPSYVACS
Protocol: Upon determining cytoproliferative activity, a cell line transfected with the human EPO receptor gene (BAF/hEPOR) was recovered and, subsequent to its washing with PBS(−), was suspended in DMEM medium ((−)FCS). The cells were prepared at 5×10^4 cells/well on a 96-well plate. […] Subsequent to the incubation, a WST-1/1-methoxy PMS solution (product of Dojindo Laboratories) was added to the individual wells (final concentration: 5 mM), and a staining reaction was then conducted in a CO2 incubator. After the reaction, measurement was conducted at a measurement wavelength of 450 nm.
With respect to the cell line (BAF/hEPOR) obtained in Example 8 with the human EPO receptor gene introduced therein, effects which may be given to its screening by the existence of a reducing agent (2-mercaptoethanol) was investigated as will be described next. Firstly, two culture media were provided, one being a culture medium obtained by adding 2-mercaptoethanol at 5×10^−5 M to DMEM medium ((−)FCS) and the other consisting solely of DMEM medium ((−)FCS) without addition of the reducing agent. Those culture media were poured into individual wells of 96-well plates, respectively, and BAF/hEPOR which had been washed with PBS(−) was suspended at 5×10^4 cells/well. […]

Row | Structure (SMILES) | effect of reducing agent on cytoproliferation of BAF/hIL-10R in the presence of rhIL-10 [1] | effect of reducing agent on cytoproliferation of BAF/hG-CSFR in the presence of rhG-CSF ([2]; 2-mercaptoethanol 5×10^-5 M vs medium alone, marked differences at rhG-CSF 0.1, 0.4, 1.6 and 6.4 ng/mL, FIG. 3) | effect of reducing agent on cytoproliferation of BAF/hEPOR in the presence of rhEPO [3] | cytoproliferation of BAF/hG-CSFR in the presence of SB247464 on addition of WEHI sup to the culture medium ([2]; WEHIsup 1.25% with 2-mercaptoethanol 5×10^-5 M vs medium alone, SB247464 0 to 10^-6 M, marked differences at 10^-8, 10^-9 and 10^-10, FIG. 5)
1 | OCCS [2-mepcaptoethanol, 2-mercaptoethanol] | enhanced | enhanced | enhanced | –
2 | c1ccc(C23N=C(Nc4nc5ccccc5[nH]4)NC2(c2ccccn2)NC(Nc2nc4ccccc4[nH]2)=N3)nc1 (stereo not shown) [SB247464, reference compound] | – | – | – | enhanced
